Several values for one entry are separate records, joined by “and”; a condition that tells them apart may be missing. Identical values can stand only once.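 Five compound concentrations were applied to cells in 96-well plates for 48 hours; endpoints were derived by simple linear interpolation of the resulting dose-response curve. At the GI50, growth is halved. The concentration for full growth arrest is given as TGI.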
Assays:
Assay in all cases: NCI tumour cell line growth inhibition, 48 h
SF-539 CNS = test system: SF-539 CNS
P388/ADR leukemia = test system: P388/ADR leukemia
KM20L2 colon = test system: KM20L2 colon
UACC-62 melanoma = test system: UACC-62 melanoma
MCF7 breast = test system: MCF7 breast
NCI/ADR-RES ovarian = test system: NCI/ADR-RES ovarian
OVCAR-3 ovarian = test system: OVCAR-3 ovarian
SN12K1 renal = test system: SN12K1 renal
HCT-15 colon = test system: HCT-15 colon
HCC-2998 colon = test system: HCC-2998 colon
HCT-116 colon = test system: HCT-116 colon
A498 renal = test system: A498 renal
HL-60(TB) leukemia = test system: HL-60(TB) leukemia
SNB-75 CNS = test system: SNB-75 CNS
SK-MEL-5 melanoma = test system: SK-MEL-5 melanoma
MOLT-4 leukemia = test system: MOLT-4 leukemia
SW-620 colon = test system: SW-620 colon
RPMI-8226 leukemia = test system: RPMI-8226 leukemia
IGROV1 ovarian = test system: IGROV1 ovarian
LOX IMVI melanoma = test system: LOX IMVI melanoma
SK-MEL-28 melanoma = test system: SK-MEL-28 melanoma
HOP-62 NSCLC = test system: HOP-62 NSCLC
OVCAR-5 ovarian = test system: OVCAR-5 ovarian
K-562 leukemia = test system: K-562 leukemia
SK-OV-3 ovarian = test system: SK-OV-3 ovarian
MALME-3M melanoma = test system: MALME-3M melanoma
HT29 colon = test system: HT29 colon
NCI-H23 lung = test system: NCI-H23 lung
NCI-H460 lung = test system: NCI-H460 lung
DMS 114 small cell lung = test system: DMS 114 small cell lung
SN12C renal = test system: SN12C renal
CCRF-CEM leukemia = test system: CCRF-CEM leukemia
HOP-92 NSCLC = test system: HOP-92 NSCLC
XF 498 CNS = test system: XF 498 CNS
KM12 colon = test system: KM12 colon
M19-MEL melanoma = test system: M19-MEL melanoma
CAKI-1 renal = test system: CAKI-1 renal
SF-295 CNS = test system: SF-295 CNS
DLD-1 colon = test system: DLD-1 colon
COLO 205 colon = test system: COLO 205 colon
UACC-257 melanoma = test system: UACC-257 melanoma
SF-268 CNS = test system: SF-268 CNS
SNB-19 CNS = test system: SNB-19 CNS
UO-31 renal = test system: UO-31 renal
DMS 273 small cell lung = test system: DMS 273 small cell lung
A549 NSCLC = test system: A549 NSCLC
EKVX NSCLC = test system: EKVX NSCLC
U251 CNS = test system: U251 CNS
OVCAR-8 ovarian = test system: OVCAR-8 ovarian
RXF 393 renal = test system: RXF 393 renal
HOP-18 NSCLC = test system: HOP-18 NSCLC
P388 leukemia = test system: P388 leukemia
SK-MEL-2 melanoma = test system: SK-MEL-2 melanoma
OVCAR-4 ovarian = test system: OVCAR-4 ovarian
NCI-H522 lung = test system: NCI-H522 lung
NCI-H226 lung = test system: NCI-H226 lung
SNB-78 CNS = test system: SNB-78 CNS
PC-3 prostate = test system: PC-3 prostate
T-47D breast = test system: T-47D breast
MDA-MB-231 breast = test system: MDA-MB-231 breast
M14 melanoma = test system: M14 melanoma
TK-10 renal = test system: TK-10 renal
SR leukemia = test system: SR leukemia
786-0 renal = test system: 786-0 renal
DU-145 prostate = test system: DU-145 prostate
MDA-N = test system: MDA-N
ACHN renal = test system: ACHN renal
MDA-MB-435 = test system: MDA-MB-435
BT-549 breast = test system: BT-549 breast

Compound `O=C(N[C@@H](c1ccccc1)[C@@H](O)C(=O)OCc1ccc2c(c1)OCO2)c1ccccc1` has a TGI (SF-539 CNS) greater than 100 µM, a TGI (P388/ADR leukemia) greater than 100 µM and a TGI (KM20L2 colon) greater than 100 µM. It also gave a TGI (UACC-62 melanoma) greater than 100 µM, a TGI (MCF7 breast) greater than 100 µM and a TGI (NCI/ADR-RES ovarian) greater than 100 µM. It also gave a TGI (OVCAR-3 ovarian) greater than 100 µM, a TGI (SN12K1 renal) greater than 100 µM and a TGI (HCT-15 colon) greater than 100 µM. It also gave a TGI (HCC-2998 colon) greater than 100 µM, a TGI (HCT-116 colon) greater than 100 µM and a TGI (A498 renal) greater than 100 µM. For the same compound, the TGI (HL-60(TB) leukemia) was greater than 100 µM, the TGI (SNB-75 CNS) was greater than 100 µM and the TGI (SK-MEL-5 melanoma) was greater than 100 µM. It also gave a TGI (MOLT-4 leukemia) greater than 100 µM, a TGI (SW-620 colon) greater than 100 µM and a TGI (RPMI-8226 leukemia) greater than 100 µM. The TGI (IGROV1 ovarian) was greater than 100 µM, the TGI (LOX IMVI melanoma) was greater than 100 µM and the TGI (SK-MEL-28 melanoma) was greater than 100 µM. For the same compound, the TGI (HOP-62 NSCLC) was greater than 100 µM, the TGI (OVCAR-5 ovarian) was greater than 31.6 µM and the TGI (K-562 leukemia) was greater than 100 µM. The TGI (SK-OV-3 ovarian) was greater than 100 µM, the TGI (MALME-3M melanoma) was greater than 100 µM and the TGI (HT29 colon) was greater than 100 µM. It also gave a TGI (NCI-H23 lung) greater than 100 µM, a TGI (NCI-H460 lung) greater than 100 µM and a TGI (DMS 114 small cell lung) greater than 100 µM. It also gave a TGI (SN12C renal) greater than 100 µM, a TGI (CCRF-CEM leukemia) greater than 100 µM and a TGI (HOP-92 NSCLC) greater than 100 µM. It also gave a TGI (XF 498 CNS) greater than 100 µM, a TGI (KM12 colon) greater than 100 µM and a TGI (M19-MEL melanoma) greater than 100 µM. The TGI (CAKI-1 renal) was greater than 100 µM, the TGI (SF-295 CNS) was greater than 100 µM and the TGI (DLD-1 colon) was greater than 100 µM. The TGI (COLO 205 colon) was greater than 100 µM, the TGI (UACC-257 melanoma) was greater than 100 µM and the TGI (SF-268 CNS) was greater than 100 µM. The TGI (SNB-19 CNS) was greater than 100 µM, the TGI (UO-31 renal) was greater than 100 µM and the TGI (DMS 273 small cell lung) was greater than 100 µM. It also gave a TGI (A549 NSCLC) greater than 100 µM, a TGI (EKVX NSCLC) greater than 100 µM and a TGI (U251 CNS) greater than 100 µM. For the same compound, the TGI (OVCAR-8 ovarian) was greater than 100 µM, the TGI (RXF 393 renal) was greater than 100 µM and the TGI (HOP-18 NSCLC) was greater than 100 µM. It also gave a TGI (P388 leukemia) greater than 100 µM, a TGI (SK-MEL-2 melanoma) greater than 100 µM and a TGI (OVCAR-4 ovarian) greater than 100 µM. For the same compound, the TGI (NCI-H522 lung) was greater than 100 µM, the TGI (NCI-H226 lung) was greater than 100 µM and the TGI (SNB-78 CNS) was greater than 100 µM.
Compound `CCCCCCCCCCS(=O)CC(CO)NC(=O)/C=C/c1c(C)[nH]c(=O)[nH]c1=O` (configuration not stated) has a GI50 (SF-539 CNS) of 14.9 µM, a TGI (P388/ADR leukemia) of 24.5 µM and a TGI (PC-3 prostate) of 7.79 µM. The TGI (KM20L2 colon) was 6 µM, the GI50 (UACC-62 melanoma) was 9.8 µM and the TGI (UACC-62 melanoma) was 4.08 µM and 24.5 µM. The GI50 (MCF7 breast) was 23.4 µM, the GI50 (NCI/ADR-RES ovarian) was 17.2 µM and the TGI (NCI/ADR-RES ovarian) was 37.9 µM and 34.2 µM. It also gave a TGI (T-47D breast) of 39.6 µM, a TGI (SN12K1 renal) of 3.9 µM and a TGI (MDA-MB-231 breast) of 15.9 µM. For the same compound, the GI50 (HCT-15 colon) was 4.4 µM, the TGI (HCT-15 colon) was 14.8 µM and 21.5 µM and the TGI (M14 melanoma) was 24.4 µM. For the same compound, the GI50 (HCC-2998 colon) was 3.26 µM, the TGI (HCC-2998 colon) was 1.9 µM and 17.5 µM and the TGI (HCT-116 colon) was 5.61 µM and 31.9 µM. The GI50 (A498 renal) was 23.4 µM, the TGI (A498 renal) was 7.98 µM and 62.1 µM and the TGI (HL-60(TB) leukemia) was 4.16 µM. The TGI (SNB-75 CNS) was 1.76 µM, the GI50 (SK-MEL-5 melanoma) was 18.2 µM and the TGI (SK-MEL-5 melanoma) was 4.52 µM and 40.4 µM. The GI50 (MOLT-4 leukemia) was 8.74 µM, the TGI (MOLT-4 leukemia) was 4.68 µM and 45.5 µM and the GI50 (SW-620 colon) was 15.7 µM. For the same compound, the GI50 (RPMI-8226 leukemia) was 10.6 µM, the GI50 (IGROV1 ovarian) was 2.77 µM and the TGI (IGROV1 ovarian) was 13.5 µM and 8.81 µM. For the same compound, the GI50 (LOX IMVI melanoma) was 13.5 µM, the TGI (LOX IMVI melanoma) was 10.2 µM and 27.1 µM and the TGI (TK-10 renal) was 4.02 µM. The GI50 (SK-MEL-28 melanoma) was 43.9 µM, the GI50 (HOP-62 NSCLC) was 4.8 µM and the TGI (HOP-62 NSCLC) was 6.49 µM and 18.4 µM. For the same compound, the GI50 (OVCAR-5 ovarian) was 2.86 µM, the TGI (OVCAR-5 ovarian) was 11.6 µM and 10.2 µM and the GI50 (K-562 leukemia) was 26.4 µM. For the same compound, the GI50 (SK-OV-3 ovarian) was 11 µM, the TGI (SK-OV-3 ovarian) was 12.7 µM and 32.1 µM and the GI50 (MALME-3M melanoma) was 23.9 µM. The TGI (SR leukemia) was greater than 100 µM, the GI50 (HT29 colon) was 6.27 µM and the TGI (HT29 colon) was 22.7 µM and 19.9 µM. For the same compound, the GI50 (NCI-H23 lung) was 29.5 µM, the TGI (NCI-H460 lung) was 1.97 µM and 15.3 µM and the TGI (DMS 114 small cell lung) was 1.42 µM. The GI50 (SN12C renal) was 10.3 µM, the TGI (786-0 renal) was 27 µM and the GI50 (CCRF-CEM leukemia) was 4.08 µM. For the same compound, the TGI (CCRF-CEM leukemia) was 2.41 µM and 13.2 µM, the GI50 (HOP-92 NSCLC) was 10.5 µM and the TGI (XF 498 CNS) was 0.229 µM. For the same compound, the TGI (DU-145 prostate) was greater than 100 µM, the TGI (MDA-N) was 57.5 µM and the TGI (ACHN renal) was 28.5 µM. The TGI (KM12 colon) was 3.27 µM, the TGI (M19-MEL melanoma) was 4.3 µM and the TGI (CAKI-1 renal) was 4.2 µM and 31.1 µM. For the same compound, the GI50 (SF-295 CNS) was 1.15 µM and 7.04 µM, the TGI (SF-295 CNS) was 8.88 µM and 22.8 µM and the TGI (DLD-1 colon) was 5.28 µM. The GI50 (COLO 205 colon) was 2.96 µM, the GI50 (UACC-257 melanoma) was 20.4 µM and the TGI (UACC-257 melanoma) was 9.58 µM and 43.7 µM. For the same compound, the TGI (SF-268 CNS) was 2.01 µM, the TGI (SNB-19 CNS) was 2.64 µM and 25.7 µM and the GI50 (UO-31 renal) was 17.2 µM. For the same compound, the TGI (UO-31 renal) was 8.68 µM and 33.8 µM, the TGI (DMS 273 small cell lung) was 4.04 µM and the GI50 (A549 NSCLC) was 14.2 µM. The TGI (A549 NSCLC) was 35.3 µM and 31.8 µM, the TGI (MDA-MB-435) was 49.1 µM and the GI50 (EKVX NSCLC) was 28.3 µM. For the same compound, the GI50 (U251 CNS) was 17.4 µM, the GI50 (RXF 393 renal) was 10 µM and the TGI (HOP-18 NSCLC) was 16.2 µM. The TGI (P388 leukemia) was 1.62 µM, the GI50 (SK-MEL-2 melanoma) was 25.8 µM and the TGI (OVCAR-4 ovarian) was 1.88 µM. The GI50 (NCI-H522 lung) was 10.6 µM, the TGI (NCI-H226 lung) was 4.21 µM and the TGI (SNB-78 CNS) was 5.65 µM. The TGI (BT-549 breast) was 25.1 µM.

— PubChem BioAssay (NCI)
